Target: T1, AMPA receptor (human GluR1 flip/stargazin expressed in CHO-K1 cells) (Homo sapiens, UniProt P42261)
T1 construct: expressed in transfected cells; host or cells: CHO-K1
Assay: AMPA receptor function enhancing activity using calcium influx as index
Type: cell-based
Details: change in fluorescence level in 3 min, 100% = 3 mM glutamic acid + 300 μM cyclothiazide, 0% = 3 mM glutamic acid only
Text: Human GluR1 flip cDNA was amplified by PCR using forward primer […] (SEQ ID NO: 1) and reverse primer […] (SEQ ID NO: 2) artificially synthesized using human brain-derived cDNA (BD Bio science) as a template. The amplified product was digested with restriction enzymes EcoRI, NotI (TAKARA SHUZO CO. LTD.), and incorporated into the same site of pcDNA3.1(+) (Invitrogen) to construct pcDNA3.1(+)/human GluR1 flip gene. Human stargazin cDNA was amplified by PCR using forward primer […] (SEQ ID NO: 3) and reverse primer. […] (SEQ ID NO: 4) artificially synthesized using human hippocampus cDNA as a template. The amplified product was digested with restriction enzymes XhoI, BamHI (TAKARA SHUZO CO. LTD.), and incorporated into the same site of pcDNA3.1(−) (Invitrogen) to construct pcDNA3.1 Zeo(−)/human stargazin gene.
(2) Construction of GluR1 Flip/Stargazin Expressing Cell
CHO-K1 cells passaged in a culture medium (Ham's F12 medium (Invitrogen) added with 10% inactivated fetal bovine serum (Morgate) and penicillin, streptomycin (Invitrogen)) were detached with 0.05% trypsin, 0.53 mM EDTA (Invitrogen) diluted with D-PBS(−). The detached cells were suspended in a culture medium, and recovered by a centrifugation operation at 1,000 rpm. The recovered cells were suspended again in D-PBS(−), and added to a 0.4 cm electroporation cuvette (BioRad). pcDNA3.1(+)/human GluR1 flip gene (5 μg) and pcDNA3.1 Zeo(−)/human stargazin gene (15 μg) were added, and the mixture was introduced into CHO-K1 cells using Gene Pulser II (BioRad) under the conditions of 950 μFd, […]. The introduced cells were cultured overnight in a culture medium and, the next day, plated in a 96 well plate at 250 cells/well using a selection medium (culture medium added with Zeocin (Invitrogen) to 250 μg/mL). Clones showing drug resistance were selected, and GluR1 flip/stargazin expressing clones were selected by an assay method using calcium influx as an index as shown below.
(3) Measurement Method of AMPA Receptor Function Enhancing Activity of Compound Using Calcium Influx as Index
CHO-K1/GluR1 flip/stargazin expressing cells were plated on a 384 well black transparent bottom plate (FMAT4307723) at 0.5×10^4 cells/well, and cultured in a 37° C., CO2 incubator (SANYO Electric Co., Ltd.) for 2 days. The medium in the cell plate was removed, and a calcium indicator (Calcium 4 Assay Kit, Molecular. Devices) containing 1.25 mM probenecid (Invitrogen) was added at 25 μL/well and the well was left standing in 37° C., CO2 incubator for 1 hr. The cell plate was set in FLITRtetra (Molecular Devices), a mixture (12.5 μL) of 9 mM glutamic acid diluted with assay buffer B (HBSS (Invitrogen), 0.1% BSA, 10 mM HEPES) and a test compound was added, and the amount of change in fluorescence level in 3 min was measured. In the definition here, the amount of change in fluorescence level of well added with glutamic acid at final concentration 3 mM and 300 μM cyclothiazide (TOCRIS) is 100%, the amount of change in fluorescence level of well added only with glutamic acid at final concentration 3 mM is 0%, and the compound activity was calculated according to the following formula. activity (%)=(X−C)/(T−C)×100 T: amount of change in fluorescence level of well added with glutamic acid at final concentration 3 mM and 300 μM cyclothiazide C: amount of change in fluorescence level of well added only with glutamic acid at final concentration 3 mM X: amount of change in fluorescence level of well added with to test compound

T1 sequence (P42261 19-906 isoform P42261-2 limits assumed): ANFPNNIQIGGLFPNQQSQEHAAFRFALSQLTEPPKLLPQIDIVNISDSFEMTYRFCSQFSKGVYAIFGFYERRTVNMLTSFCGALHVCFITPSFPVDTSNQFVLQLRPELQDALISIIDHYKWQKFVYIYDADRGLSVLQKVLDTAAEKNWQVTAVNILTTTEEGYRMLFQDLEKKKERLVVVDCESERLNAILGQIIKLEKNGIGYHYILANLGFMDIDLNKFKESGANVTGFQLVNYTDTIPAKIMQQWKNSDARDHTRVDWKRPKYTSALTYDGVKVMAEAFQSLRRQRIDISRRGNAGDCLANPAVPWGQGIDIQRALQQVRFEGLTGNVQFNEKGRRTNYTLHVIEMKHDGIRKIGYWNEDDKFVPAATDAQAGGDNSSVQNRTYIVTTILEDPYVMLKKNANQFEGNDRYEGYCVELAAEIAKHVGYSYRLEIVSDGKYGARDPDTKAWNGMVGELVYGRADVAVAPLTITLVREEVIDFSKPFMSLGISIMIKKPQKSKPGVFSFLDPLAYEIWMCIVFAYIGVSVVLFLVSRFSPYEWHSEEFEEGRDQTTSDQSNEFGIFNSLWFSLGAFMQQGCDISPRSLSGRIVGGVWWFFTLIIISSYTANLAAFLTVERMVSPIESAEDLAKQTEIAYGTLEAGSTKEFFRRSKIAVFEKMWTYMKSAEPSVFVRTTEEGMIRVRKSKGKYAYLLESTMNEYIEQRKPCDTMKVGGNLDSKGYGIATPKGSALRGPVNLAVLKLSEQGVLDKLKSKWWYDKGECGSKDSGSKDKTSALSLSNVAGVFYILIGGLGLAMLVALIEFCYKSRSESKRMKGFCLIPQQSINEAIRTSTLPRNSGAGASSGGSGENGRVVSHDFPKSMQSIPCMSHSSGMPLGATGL
T1 sequence (Q9Y698 whole entry partner): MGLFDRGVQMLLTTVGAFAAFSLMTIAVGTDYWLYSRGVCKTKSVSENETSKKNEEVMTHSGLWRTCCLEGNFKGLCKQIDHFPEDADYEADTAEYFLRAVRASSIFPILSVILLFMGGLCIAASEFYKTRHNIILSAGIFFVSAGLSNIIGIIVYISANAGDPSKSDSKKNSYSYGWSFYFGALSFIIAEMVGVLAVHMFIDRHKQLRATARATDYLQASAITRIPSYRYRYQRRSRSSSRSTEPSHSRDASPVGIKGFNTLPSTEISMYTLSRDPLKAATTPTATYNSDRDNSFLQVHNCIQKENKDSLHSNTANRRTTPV

| activity (%) | Compound |
| --- | --- |
| 73% | CCS(=O)(=O)N[C@H]1COCC[C@@H]1COc1ccc(C(C)C)cc1 (relative stereo) [Example 95, trans-N-[4-{[4-(1-methylethyl)phenoxy]methyl}tetrahydro-2H-pyran-3-yl]ethanesulfonamide] |
| 89% | CCS(=O)(=O)N[C@H]1CCSC[C@@H]1COc1ccc(C2CCOCC2)cc1 [Example 529, N-((3S,4S)-3-((4-(tetrahydro-2H-pyran-4-yl)phenoxy)methyl)tetrahydro-2H-thiopyran-4-yl)ethanesulfonamide] |
| 88% | CCS(=O)(=O)N[C@H]1CCOC[C@@H]1COc1ccc(C(C)=O)cc1 (relative stereo) [Example 135, trans-N-{3-[(4-acetylphenoxy)methyl]tetrahydro-2H-pyran-4-yl}ethanesulfonamide] |
| 54% | CCS(=O)(=O)N[C@H]1CCC(F)(F)C[C@@H]1COc1ccc(-n2ccc(C)n2)cc1 (relative stereo) [Example 142, trans-N-[4,4-difluoro-2-{[4-(3-methyl-1H-pyrazol-1-yl)phenoxy]methyl}cyclohexyl]ethanesulfonamide] |
| 101% | CS(=O)(=O)N[C@H]1CCC(F)(F)C[C@@H]1COc1ccc(-c2ncc(C#N)cc2F)cc1 [Example 215, N-[(1S,2S)-2-{[4-(5-cyano-3-fluoropyridin-2-yl)phenoxy]methyl}-4,4-difluorocyclohexyl]methanesulfonamide] |
| 95% | Cn1cccc(-c2ccc(OC[C@H]3CSCC[C@@H]3NS(C)(=O)=O)cc2)c1=O [Example 518, N-((3S,4S)-3-((4-(1-methyl-2-oxo-1,2-dihydropyridin-3-yl)phenoxy)methyl)tetrahydro-2H-thiopyran-4-yl)methanesulfonamide] |
| 95% | CCS(=O)(=O)N[C@H]1CCOC[C@@H]1COc1ccc(-c2cccnc2)cc1 (relative stereo) [Example 138, trans-N-{3-[(4-pyridin-3-ylphenoxy)methyl]tetrahydro-2H-pyran-4-yl}ethanesulfonamide] |
| 87% | CCS(=O)(=O)N[C@H]1CCOC[C@@H]1COc1ccc(-c2cc(C)on2)c(F)c1 [Example 248, N-[(3R,4S)-3-{[3-fluoro-4-(5-methylisoxazol-3-yl)phenoxy]methyl}tetrahydro-2H-pyran-4-yl]ethanesulfonamide] |
| 81% | CCS(=O)(=O)N[C@H]1CCCC[C@@H]1COc1ccc(C(C)C)cc1 [Example 13, N-[(1S,2S)-2-{[4-(1-methylethyl)phenoxy]methyl}cyclohexyl]ethanesulfonamide] |
| 93% | CS(=O)(=O)N[C@H]1CCOC[C@@H]1COc1ccc(-n2cc(Cl)cn2)cc1 [Example 269, N-[(3R,4S)-3-{[4-(4-chloro-1H-pyrazol-1-yl)phenoxy]methyl}tetrahydro-2H-pyran-4-yl]methanesulfonamide] |
| 88% | CS(=O)(=O)N[C@H]1CCSC[C@@H]1COc1ccc(C2CCOCC2)cc1 [Example 519, N-((3S,4S)-3-((4-(tetrahydro-2H-pyran-4-yl)phenoxy)methyl)tetrahydro-2H-thiopyran-4-yl)methanesulfonamide] |
| 79% | CN(C)S(=O)(=O)N[C@H]1CCOC[C@@H]1COc1ccc(-n2cc(Cl)cn2)cc1 (racemic) [Example 279, N′-[(3RS,4SR)-3-{[4-(4-chloro-1H-pyrazol-1-yl)phenoxy]methyl}tetrahydro-2H-pyran-4-yl]-N,N-dimethylsulfamide] |
| 89% | CCS(=O)(=O)N[C@H]1CCOC[C@@H]1COc1ccc(C(C)=O)c(F)c1 (relative stereo) [Example 131, trans-N-{3-[(4-acetyl-3-fluorophenoxy)methyl]tetrahydro-2H-pyran-4-yl}ethanesulfonamide] |
| 78% | CCS(=O)(=O)N[C@H]1CCC(F)(F)C[C@@H]1COc1ccc(-n2cc(C)cn2)cc1 (relative stereo) [Example 141, trans-N-[4,4-difluoro-2-{[4-(4-methyl-1H-pyrazol-1-yl)phenoxy]methyl}cyclohexyl]ethanesulfonamide] |
| 74% | CS(=O)(=O)N[C@H]1COCC[C@@H]1COc1ccc(-n2cc(Cl)cn2)cc1F [Example 207, N-[(3R,4S)-4-{[4-(4-chloro-1H-pyrazol-1-yl)-2-fluorophenoxy]methyl}tetrahydro-2H-pyran-3-yl]methanesulfonamide] |
| 96% | CS(=O)(=O)N[C@H]1CCOC[C@@H]1COc1ccc(-c2ccc(Cl)cn2)c(F)c1 (racemic) [Example 244, N-[(3RS,4SR)-3-{[4-(5-chloropyridin-2-yl)-3-fluorophenoxy]methyl}tetrahydro-2H-pyran-4-yl]methanesulfonamide] |
| 95% | CCS(=O)(=O)N[C@H]1CCSC[C@@H]1COc1ccc(-n2cc(C#N)cn2)cc1 [Example 522, N-((3S,4S)-3-((4-(4-cyano-1H-pyrazol-1-yl)phenoxy)methyl)tetrahydro-2H-thiopyran-4-yl)ethanesulfonamide] |
| 97% | CCS(=O)(=O)N[C@H]1CCOC[C@@H]1COc1ccc(-n2cnc(C)c2)cc1 (relative stereo) [Example 139, trans-N-[3-{[4-(4-methyl-1H-imidazol-1-yl)phenoxy]methyl}tetrahydro-2H-pyran-4-yl]ethanesulfonamide] |
| 82% | CCS(=O)(=O)N[C@H]1CCOC[C@@H]1COc1ccc(-n2cccn2)cc1 (single isomer, unassigned) [Example 6, trans-N-[3-{[4-(1H-pyrazol-1-yl)phenoxy]methyl}tetrahydro-2H-pyran-4-yl]ethanesulfonamide] |
| 60% | O=S(=O)(N[C@H]1COCC[C@@H]1COc1ccc(-c2ncc(Cl)cc2F)cc1)C1CC1 [Example 383, N-[(3R,4S)-4-{[4-(5-chloro-3-fluoropyridin-2-yl)phenoxy]methyl}tetrahydro-2H-pyran-3-yl]cyclopropanesulfonamide] |
| 74% | CS(=O)(=O)N[C@H]1CCOC[C@@H]1COc1ccc(-n2cc(Cl)cn2)cc1 (racemic) [Example 270, N-[(3RS,4SR)-3-{[4-(4-chloro-1H-pyrazol-1-yl)phenoxy]methyl}tetrahydro-2H-pyran-4-yl]methanesulfonamide] |
| 93% | Cc1cnc(-c2ccc(OC[C@H]3COCC[C@@H]3NS(C)(=O)=O)cc2)s1 (racemic) [Example 333, N-[(3RS,4SR)-3-{[4-(5-methyl-1,3-thiazol-2-yl)phenoxy]methyl}tetrahydro-2H-pyran-4-yl]methanesulfonamide] |
| 57% | CCS(=O)(=O)N[C@H]1CCN(C(C)=O)C[C@@H]1COc1ccc(-n2cccn2)cc1 (relative stereo) [Example 3, trans-N-[1-acetyl-3-{[4-(1H-pyrazol-1-yl)phenoxy]methyl}piperidin-4-yl]ethanesulfonamide] |
| 89% | CCS(=O)(=O)N[C@H]1CCC(F)(F)C[C@@H]1COc1ccc(-c2ncc(C#N)cc2F)cc1 [Example 222, N-[(1S,2S)-2-{[4-(5-cyano-3-fluoropyridin-2-yl)phenoxy]methyl}-4,4-difluorocyclohexyl]ethanesulfonamide] |
| 96% | O=S(=O)(N[C@H]1CCOC[C@@H]1COc1ccc(-c2ncc(F)cc2F)cc1)C1CC1 (racemic) [Example 362, N-[(3RS,4SR)-3-{[4-(3,5-difluoropyridin-2-yl)phenoxy]methyl}tetrahydro-2H-pyran-4-yl]cyclopropanesulfonamide] |
